Patent publication US7056947B2, “Aza-peptide epoxides” (Georgia Tech Research Corp., priority 2002, dated 2006)

Legend:
caspase-1 = target: T1, caspase-1 (Homo sapiens, UniProt P29466, D381E); assay: Caspase-1 progress curve assay; type: biochemical; settings: D381E variant, substrate Ac-YVAD-AMC, 30° C.
T1 construct: His tag (N); made in house; host or cells: E. coli
T1 sequence (P29466 120-297 limits assumed): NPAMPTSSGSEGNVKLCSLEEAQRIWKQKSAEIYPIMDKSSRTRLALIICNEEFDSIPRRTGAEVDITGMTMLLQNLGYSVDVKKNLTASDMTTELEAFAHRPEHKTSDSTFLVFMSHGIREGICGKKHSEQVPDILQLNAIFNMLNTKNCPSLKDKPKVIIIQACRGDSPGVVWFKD
T1 sequence (P29466 317-404 D381E limits assumed): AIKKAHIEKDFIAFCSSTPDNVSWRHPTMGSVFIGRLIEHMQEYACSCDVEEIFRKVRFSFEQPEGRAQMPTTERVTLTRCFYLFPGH
Text: Caspase-1. The preparation of the autolytically stable caspase-1 variant used in these studies has been described previously. Briefly, the variant contains a mutation (D381E) which renders it resistant to autolytic inactivation, but has no detectable affect on enzyme activity as compared to the naturally occurring enzyme. The enzyme variant was expressed in E. coli, purified first by immobilized metal chromatography via the N-terminal N-His tag, treated with excess oxidized glutathione to stabilize the reactive thiolate, and then re-purified by size-exclusion chromatography.
Inhibition data was measured using the progress curve assay method. Serial dilutions of each compound were prepared using an initial 8-fold dilution of a DMSO stock into HGE (100 mM HEPES,20% glycerol v/v, 0.5 mM EDTA), followed by seven serial two-fold dilutions into HGE and 12.5% DMSO, thus maintaining constant DMSO through the dilution series. Ten μL of diluted stocks or of vehicle (HGE and 12.5% DMSO) were placed in triplicate onto a 96-well microtiter plate, allowing several compounds to be tested on each plate. The plate was covered to minimize evaporation, and the plate was pre-warmed to 30° C. for 20 minutes. Enzyme was diluted into 10.0 mL of assay buffer (HGE, 5 mM DTT, plus 15 μM Ac-YVAD-AMC, 2 nM approximate final enzyme concentration), and this activated reaction mixture was added to the plate at 90 μL/well. Progress of substrate hydrolysis was monitored for 900 s in a LabSystems (Needham, Mass.) Fluoroskan Ascent fluorescent plate-reader using 385 and 460 nm excitation and emission filters, respectively, and a photomultiplier gain setting of 10. Triplicate curves were averaged and fit by nonlinear regression to the equation for irreversible inactivation shown below.
[formula] where F0 was routinely fixed to zero, since fluorescence values were always adjusted to an origin of 0. The second order rate constant kon (M^−1s^−1) was obtained from the slopes by linear regression, and errors represent the standard deviation of the regression slope.

caspase-3 = target: T2, caspase-3 (Homo sapiens, UniProt P42574); assay: Caspase-3 progress curve assay; type: biochemical; settings: substrate Z-DEVD-AFC; NI = no inhibition
T2 construct: made in house; host or cells: E. coli
T2 sequence (P42574 29-175 limits assumed): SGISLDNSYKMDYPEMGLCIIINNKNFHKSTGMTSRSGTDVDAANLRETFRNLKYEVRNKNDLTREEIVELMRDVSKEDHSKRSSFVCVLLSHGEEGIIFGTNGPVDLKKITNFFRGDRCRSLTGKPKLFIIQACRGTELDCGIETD
T2 sequence (P42574 176-277 limits assumed): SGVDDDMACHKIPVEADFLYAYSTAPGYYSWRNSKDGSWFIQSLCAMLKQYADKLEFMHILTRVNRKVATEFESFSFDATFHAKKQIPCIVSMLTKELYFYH
Procedure: Caspase-3, -6, and -8. Caspase-3, -6 and -8 were expressed in E. coli and purified according to methods previously described by Stennicke and Salvesen. Assays using the fluorogenic substrate Z-DEVD-AFC (λex=400 nm, λem=505 nm) were carried out on a Molecular Devices fMax fluorescence microplate reader. Inhibition rates and equilibria were determined by the progress curve method. The standard 100 μL reaction was started by adding enzyme to a mixture of substrate (final concentration of Z-DEVD-AFC 100 μM) and various amounts of inhibitor in buffer (50 mM Hepes, 100 mM NaCl, 0.1% (w/v) CHAPS, sucrose 10% (w/v), and 10 mM DTT, at pH 7.4). The caspases were pre-activated for 10 min at 37° C. in the presence of 10 mM DTT.

| Molecule | k2 caspase-1 (caspase-1) | k2 caspase-3 (caspase-3) |
| --- | --- | --- |
| CCOC(=O)[C@H]1O[C@@H]1C(=O)N(CC(=O)O)NC(=O)[C@@H](NC(=O)[C@H](CCC(=O)O)NC(=O)[C@H](CC(=O)O)NC(=O)OCc1ccccc1)C(C)C [25c (S,S), (2S,3S)-3-(N^2-(N-Benzyloxycarbonylaspartylglutamylvalyl)-N^1-carboxymethylhydrazinocarbonyl)oxirane-2-carboxylic Acid Ethyl Ester] | 11840 ± 1214 M⁻¹ s⁻¹ | 1074440 ± 154710 M⁻¹ s⁻¹ |
| CC(NC(=O)[C@H]1O[C@@H]1C(=O)N(CC(=O)O)NC(=O)[C@H](C)NC(=O)[C@@H](NC(=O)CCc1ccccc1)C(C)C)C(=O)NCc1ccccc1 (stereo partly drawn) [23j (S,S), (2S,3S)-2-(1-Benzylcarbamoylethylcarbamoyl)-3-(N^2-(3-phenylpropanoylvalylalanyl)-N^1-carboxymethylhydrazinocarbonyl)oxirane] | 13400 M⁻¹ s⁻¹ | 260 ± 25 M⁻¹ s⁻¹ |
| CC(C)[C@H](NC(=O)[C@H](CCC(=O)O)NC(=O)[C@H](CC(=O)O)NC(=O)OCc1ccccc1)C(=O)NN(CC(=O)O)C(=O)[C@H]1O[C@@H]1C(=O)N[C@@H](Cc1ccccc1)C(N)=O [25l, Cbz-Asp-Glu-Val-AAsp-(S,S)-EP-CO-Phe-NH2] | 9250 ± 2835 M⁻¹ s⁻¹ | 722180 ± 340860 M⁻¹ s⁻¹ |
| CC(C)[C@H](NC(=O)CCc1ccccc1)C(=O)N[C@@H](C)C(=O)NN(CC(=O)O)C(=O)[C@H]1O[C@@H]1C(=O)NCC(O)c1ccccc1 (stereo partly drawn) [23i (S,S), (2S,3S)-2-(2-Hydroxy-2-phenylethylcarbamoyl)-3-(N^2-(3-phenylpropanoylvalylalanyl)-N^1-carboxymethylhydrazinocarbonyl)oxirane] | 12260 ± 19 M⁻¹ s⁻¹ | 510 ± 100 M⁻¹ s⁻¹ |
| CC(C)[C@H](NC(=O)[C@H](CCC(=O)O)NC(=O)OCc1ccccc1)C(=O)NN(CC(=O)O)C(=O)[C@H]1O[C@@H]1C(=O)NCCc1ccccc1 [24h, (2S,3S)-2-(2-Phenethylcarbamoyl)-3-(N^2-(N-benzyloxycarbonylglutamylvalyl)-N^1-carboxymethylhydrazinocarbonyl)oxirane] | 41070 ± 440 M⁻¹ s⁻¹ | 27330 ± 5430 M⁻¹ s⁻¹ |
| CCOC(=O)[C@@H]1O[C@H]1C(=O)N(CC(=O)O)NC(=O)[C@@H](NC(=O)[C@H](CCC(=O)O)NC(=O)[C@H](CC(=O)O)NC(=O)OCc1ccccc1)C(C)C [25c (R,R), (2R,3R)-3-(N^2-(N-Benzyloxycarbonylaspartylglutamylvalyl)-N^1-carboxymethylhydrazinocarbonyl)oxirane-2-carboxylic Acid Ethyl Ester] | 4320 ± 830 M⁻¹ s⁻¹ | 464420 ± 186300 M⁻¹ s⁻¹ |
| (2R,3R)-2-(1-Amido-phenethylcarbamoyl)-3-(N^2-(N-benzyloxycarbonylaspartylglutamylvalyl)-N^1-carboxymethylhydrazinocarbonyl)oxirane [24l] | 1040 ± 455 M⁻¹ s⁻¹ | 470 ± 77 M⁻¹ s⁻¹ |
| CCOC(=O)[C@H]1O[C@@H]1C(=O)N(CC(=O)O)NC(=O)[C@H](C)NC(=O)[C@@H](NC(=O)CCc1ccccc1)C(C)C [23c (S,S), (2S,3S)-3-(N^2-(3-Phenylpropanoylvalylalanyl)-N^1-carboxymethylhydrazinocarbonyl)oxirane-2-carboxylic Acid Ethyl Ester] | 32200 ± 14560 M⁻¹ s⁻¹ | 1040 ± 80 M⁻¹ s⁻¹ |
| CC(C)[C@H](NC(=O)[C@H](CCC(=O)O)NC(=O)[C@H](CC(=O)O)NC(=O)OCc1ccccc1)C(=O)NN(CC(=O)O)C(=O)[C@H]1O[C@@H]1C(=O)NCc1ccccc1 [25g, (2S,3S)-2-(2-Benzylcarbamoyl)-3-(N^2-(N-benzyloxycarbonylaspartylglutamylvalyl)-N^1-carboxymethylhydrazinocarbonyl)oxirane] | 25420 ± 4013 M⁻¹ s⁻¹ | 1097820 ± 94860 M⁻¹ s⁻¹ |
| CCOC(=O)[C@H]1O[C@@H]1C(=O)N(CC(=O)O)NC(=O)[C@@H](NC(=O)[C@H](CCC(=O)O)NC(=O)[C@@H](NC(=O)OCc1ccccc1)[C@@H](C)CC)[C@@H](C)O [27c (S,S), (2S,3S)-3-(N^2-(N-Benzyloxycarbonylisoleucylglutamylthreonyl)-N^1-carboxymethylhydrazinocarbonyl)oxirane-2-carboxylic Acid Ethyl Ester] | 12372 M⁻¹ s⁻¹ | 4080 ± 360 M⁻¹ s⁻¹ |
| CCOC(=O)[C@@H]1O[C@H]1C(=O)N(CC(=O)O)NC(=O)[C@@H](NC(=O)[C@H](CCC(=O)O)NC(=O)[C@@H](NC(=O)OCc1ccccc1)[C@@H](C)CC)[C@@H](C)O [27c (R,R), (2R,3R)-3-(N^2-(N-Benzyloxycarbonylisoleucylglutamylthreonyl)-N^1-carboxymethylhydrazinocarbonyl)oxirane-2-carboxylic Acid Ethyl Ester] | 13260 ± 3684 M⁻¹ s⁻¹ | 2630 ± 365 M⁻¹ s⁻¹ |
| CC(C)[C@H](NC(=O)CCc1ccccc1)C(=O)N[C@@H](C)C(=O)NN(CC(=O)O)C(=O)[C@H]1O[C@@H]1C(=O)NCc1ccccc1 [23g (S,S), (2S,3S)-2-(2-Benzylcarbamoyl)-3-(N^2-(3-phenylpropanoylvalylalanyl)-N^1-carboxymethylhydrazinocarbonyl)oxirane] | 65900 ± 9153 M⁻¹ s⁻¹ | 1610 ± 5 M⁻¹ s⁻¹ |
| CC(C)[C@H](NC(=O)CCc1ccccc1)C(=O)N[C@@H](C)C(=O)NN(CC(=O)O)C(=O)[C@H]1O[C@@H]1C(=O)NC(Cc1ccc(O)cc1)C(N)=O (stereo partly drawn) [23m, (2S,3S)-2-(2-Amido-phenyl(4-hydroxy)ethylcarbamoyl)-3-(N^2-(3-phenylpropanoylvalylalanyl)-N^1-carboxymethylhydrazinocarbonyl)oxirane] | 3245 ± 2330 M⁻¹ s⁻¹ | 87 ± 4 M⁻¹ s⁻¹ |
| CC(C)[C@H](NC(=O)CCc1ccccc1)C(=O)N[C@@H](C)C(=O)NN(CC(=O)O)C(=O)[C@H]1O[C@@H]1C(=O)NCCc1ccccc1 [23h (S,S), (2S,3S)-2-(2-Phenethylcarbamoyl)-3-(N^2-(3-phenylpropanoylvalylalanyl)-N^1-carboxymethylhydrazinocarbonyl)oxirane] | 17150 ± 2254 M⁻¹ s⁻¹ | 1110 ± 100 M⁻¹ s⁻¹ |
| CC[C@H](C)[C@H](NC(=O)OCc1ccccc1)C(=O)N[C@@H](CCC(=O)O)C(=O)N[C@H](C(=O)NN(CC(=O)O)C(=O)[C@@H]1O[C@H]1C(=O)NCc1ccccc1)[C@@H](C)O [27g, (2R,3R)-2-(2-Benzylcarbamoyl)-3-(N^2-(N-benzyloxycarbonylisoleucylglutamylthreonyl)-N^1-carboxymethylhydrazinocarbonyl)oxirane] | 18140 ± 4085 M⁻¹ s⁻¹ | 6475 ± 240 M⁻¹ s⁻¹ |
| CC[C@H](C)[C@H](NC(=O)OCc1ccccc1)C(=O)N[C@@H](CCC(=O)O)C(=O)N[C@H](C(=O)NN(CC(=O)O)C(=O)[C@@H]1O[C@H]1C(=O)OCc1ccccc1)[C@@H](C)O [27d (R,R), (2R,3R)-3-(N^2-(N-Benzyloxycarbonylisoleucylglutamylthreonyl)-N^1-carboxymethylhydrazinocarbonyl)oxirane-2-carboxylic Acid Benzyl Ester] | 13000 ± 980 M⁻¹ s⁻¹ | 3115 ± 125 M⁻¹ s⁻¹ |
